The results in this text go back to ChEMBL document CHEMBL5532660, “Lead Optimization of BIBR1591 To Improve Its Telomerase Inhibitory Activity: Design and Synthesis of Novel Four Chemical Series with In Silico, In Vitro, and In Vivo Preclinical Assessments” (J Med Chem, 2024).

The inhibition is the drop in the measured response relative to a control, in per cent. What is called IC50 is the concentration needed to halve the response being measured.

Data set [1] addresses Telomerase reverse transcriptase (Homo sapiens) (UniProt O14746). Kind of data set: Inhibition of telomerase (unknown origin) by RT-qPCR analysis relative to control. The arrangement: concentration or dose not given beside the values. The conditions noted are these: concentration not given here.
A further data set deals with A549. Nature of the data set: Cytotoxicity against human A549 cells overexpressing telomerase assessed as inhibition of cell growth incubated for 48 hrs by SRB assay. It counts as functional, cell-based. The settings on record: A549, 48 h. On the technique in general: Sulforhodamine B stains cellular protein and so reports cell mass.
The subject of the next data set is NCI-H1299. Nature of the data set: Cytotoxicity against human NCI-H1299 cells overexpressing telomerase assessed as inhibition of cell growth incubated for 48 hrs by SRB assay. Type of data set: functional, cell-based. The conditions noted are these: NCI-H1299, 48 h.
The next data set has as its system NCI-H460. Nature of the data set: Cytotoxicity against human NCI-H460 cells overexpressing telomerase assessed as inhibition of cell growth incubated for 48 hrs by SRB assay. It counts as functional, cell-based. The settings on record: NCI-H460, 48 h.
Another data set relates to HepG2. Kind of data set: Cytotoxicity against human HepG2 cells overexpressing telomerase assessed as inhibition of cell growth incubated for 48 hrs by SRB assay. It counts as functional, cell-based. The settings on record: HepG2, 48 h.
The subject of data set [2] is Huh-7. Nature of the data set: Cytotoxicity against human Huh-7 cells overexpressing telomerase assessed as inhibition of cell growth incubated for 48 hrs by SRB assay. It counts as functional, cell-based. The conditions noted are these: Huh-7, 48 h.
A short description of data set [3]: Cytotoxicity against HSF cells assessed as reduction in cell viability upto 50 ug/ml incubated for 48 hrs by SRB assay. The conditions noted are these: human, dose < 50 µg/ml. It counts as toxicity, cell-based.
Data set [4] deals with Huh-7. Kind of data set: Induction of apoptosis in human Huh-7 cells assessed as upregulation of p53 protein expression by measuring fold change by ELISA relative to control. It counts as functional. In general terms: ELISA stands for enzyme-linked immunosorbent assay.
Data set [5] relates to Huh-7. Kind of data set: Induction of apoptosis in human Huh-7 cells assessed as upregulation of BAX protein expression by measuring fold change by ELISA relative to control. Type of data set: functional.
Data set [6] relates to Huh-7. Nature of the data set: Induction of apoptosis in human Huh-7 cells assessed as downregulation of BCL-2 protein expression by measuring fold change by ELISA relative to control. It counts as functional.
For data set [7], the system named is Ehrlich. Kind of data set: Antitumor activity against mouse EAC cells implanted in Swiss albino mouse assessed as reduction in tumor volume at 5 mg/kg, ip administered for 2 weeks and measured on day 5, 10 and 14 relative to control. Type of data set: functional. The arrangement: scale not given: the % may be the effect or the level left.
Data set [8] concerns Ehrlich. Nature of the data set: Antitumor activity against mouse EAC cells implanted in Swiss albino mouse assessed as reduction in tumor weight at 5 mg/kg, ip administered for 2 weeks and measured on day 5, 10 and 14 relative to control. It counts as functional. More on the design: scale not given: the % may be the effect or the level left.
For data set [9], the system named is Ehrlich. Nature of the data set: Antitumor activity against mouse EAC cells implanted in Swiss albino mouse assessed as increase in serum SOD level at 5 mg/kg, ip administered for 2 weeks by ELISA relative to control. Type of data set: functional.
For data set [10], the system named is Ehrlich. Nature of the data set: Antitumor activity against mouse EAC cells implanted in Swiss albino mouse assessed as increase in caspase-3 level in serum at 5 mg/kg, ip administered for 2 weeks by ELISA relative to control. It counts as functional.
Data set [11] has as its system Ehrlich. Kind of data set: Antitumor activity against mouse EAC cells implanted in Swiss albino mouse assessed as reduction in TNF-alpha level at 5 mg/kg, ip administered for 2 weeks by ELISA relative to control. It counts as functional. The arrangement: scale not given: the % may be the effect or the level left.
The test system of data set [12] is Ehrlich. Nature of the data set: Antitumor activity against mouse EAC cells implanted in Swiss albino mouse assessed as increase in hemoglobin level at 5 mg/kg, ip administered for 2 weeks relative to control. It counts as functional.
Data set [13] concerns Ehrlich. Nature of the data set: Antitumor activity against mouse EAC cells implanted in Swiss albino mouse assessed as increase in erythrocyte count at 5 mg/kg, ip administered for 2 weeks relative to control. It counts as functional.
Data set [14] relates to Ehrlich. Kind of data set: Antitumor activity against mouse EAC cells implanted in Swiss albino mouse assessed as reduction in total leukocytes count at 5 mg/kg, ip administered for 2 weeks relative to control. Type of data set: functional. The arrangement: scale not given: the % may be the effect or the level left.
Data set [15] relates to Ehrlich. Nature of the data set: Antitumor activity against mouse EAC cells implanted in Swiss albino mouse assessed as reduction in total platelet count at 5 mg/kg, ip administered for 2 weeks relative to control. It counts as functional. The arrangement: scale not given: the % may be the effect or the level left.
For data set [16], the system named is Ehrlich. Kind of data set: Antitumor activity against mouse EAC cells implanted in Swiss albino mouse assessed as hemoglobin level at 5 mg/kg, ip administered for 2 weeks (reference value: 9.25 +/- 0.26 g/dL). Type of data set: functional.
Data set [17] relates to Ehrlich. Kind of data set: Antitumor activity against mouse EAC cells implanted in Swiss albino mouse assessed as erythrocyte count at 5 mg/kg, ip administered for 2 weeks (reference value: 4.1 +/- 0.23 x 10^6/mm3). Type of data set: functional.
The test system of data set [18] is Ehrlich. Nature of the data set: Antitumor activity against mouse EAC cells implanted in Swiss albino mouse assessed as mean corpuscular volume at 5 mg/kg, ip administered for 2 weeks (reference value: 46.78 +/- 0.43 fL). Type of data set: functional.
Data set [19] deals with Ehrlich. Nature of the data set: Antitumor activity against mouse EAC cells implanted in Swiss albino mouse assessed as mean corpuscular hemoglobin at 5 mg/kg, ip administered for 2 weeks (reference value: […] +/- 0.48 pg). Type of data set: functional.
Data set [20] concerns Ehrlich. Nature of the data set: Antitumor activity against mouse EAC cells implanted in Swiss albino mouse assessed as total leukocyte count at 5 mg/kg, ip administered for 2 weeks (reference value: 7.11 +/- 0.27 x10^3/mm3). Type of data set: functional.
For data set [21], the system named is Ehrlich. Nature of the data set: Antitumor activity against mouse EAC cells implanted in Swiss albino mouse assessed as platelet count at 5 mg/kg, ip administered for 2 weeks (reference value: 963.66 +/- 29.63 x10^3/mm3). It counts as functional.
The test system of data set [22] is Ehrlich. Kind of data set: Antitumor activity against mouse EAC cells implanted in Swiss albino mouse assessed as intact anaplastic tumor cells at 5 mg/kg, ip administered for 2 weeks by H and E staining based light microscopic analysis (reference value: 75 to 100%). It counts as functional.
In data set [23] the test system is Ehrlich. Nature of the data set: Antitumor activity against mouse EAC cells implanted in Swiss albino mouse assessed as apoptotic cells at 5 mg/kg, ip administered for 2 weeks by H and E staining based light microscopic analysis (reference value: 25 to 50%). Type of data set: functional.
The subject of data set [24] is Ehrlich. Kind of data set: Antitumor activity against mouse EAC cells implanted in Swiss albino mouse assessed as necrosis at 5 mg/kg, ip administered for 2 weeks by H and E staining based light microscopic analysis (reference value: 0 to 25%). It counts as functional.
The subject of data set [25] is Ehrlich. Nature of the data set: Antitumor activity against mouse EAC cells implanted in Swiss albino mouse assessed as appearance of granulation tissue at 5 mg/kg, ip administered for 2 weeks by H and E staining based light microscopic analysis (reference value: 0 to 25%). Type of data set: functional.
Data set [26] relates to Ehrlich. Nature of the data set: Antitumor activity against mouse EAC cells implanted in Swiss albino mouse assessed as inflammatory cell infiltration at 5 mg/kg, ip administered for 2 weeks by H and E staining based light microscopic analysis (reference value: 0 to 25%). Type of data set: functional.

Chain of Telomerase reverse transcriptase (Homo sapiens) (O14746 whole entry): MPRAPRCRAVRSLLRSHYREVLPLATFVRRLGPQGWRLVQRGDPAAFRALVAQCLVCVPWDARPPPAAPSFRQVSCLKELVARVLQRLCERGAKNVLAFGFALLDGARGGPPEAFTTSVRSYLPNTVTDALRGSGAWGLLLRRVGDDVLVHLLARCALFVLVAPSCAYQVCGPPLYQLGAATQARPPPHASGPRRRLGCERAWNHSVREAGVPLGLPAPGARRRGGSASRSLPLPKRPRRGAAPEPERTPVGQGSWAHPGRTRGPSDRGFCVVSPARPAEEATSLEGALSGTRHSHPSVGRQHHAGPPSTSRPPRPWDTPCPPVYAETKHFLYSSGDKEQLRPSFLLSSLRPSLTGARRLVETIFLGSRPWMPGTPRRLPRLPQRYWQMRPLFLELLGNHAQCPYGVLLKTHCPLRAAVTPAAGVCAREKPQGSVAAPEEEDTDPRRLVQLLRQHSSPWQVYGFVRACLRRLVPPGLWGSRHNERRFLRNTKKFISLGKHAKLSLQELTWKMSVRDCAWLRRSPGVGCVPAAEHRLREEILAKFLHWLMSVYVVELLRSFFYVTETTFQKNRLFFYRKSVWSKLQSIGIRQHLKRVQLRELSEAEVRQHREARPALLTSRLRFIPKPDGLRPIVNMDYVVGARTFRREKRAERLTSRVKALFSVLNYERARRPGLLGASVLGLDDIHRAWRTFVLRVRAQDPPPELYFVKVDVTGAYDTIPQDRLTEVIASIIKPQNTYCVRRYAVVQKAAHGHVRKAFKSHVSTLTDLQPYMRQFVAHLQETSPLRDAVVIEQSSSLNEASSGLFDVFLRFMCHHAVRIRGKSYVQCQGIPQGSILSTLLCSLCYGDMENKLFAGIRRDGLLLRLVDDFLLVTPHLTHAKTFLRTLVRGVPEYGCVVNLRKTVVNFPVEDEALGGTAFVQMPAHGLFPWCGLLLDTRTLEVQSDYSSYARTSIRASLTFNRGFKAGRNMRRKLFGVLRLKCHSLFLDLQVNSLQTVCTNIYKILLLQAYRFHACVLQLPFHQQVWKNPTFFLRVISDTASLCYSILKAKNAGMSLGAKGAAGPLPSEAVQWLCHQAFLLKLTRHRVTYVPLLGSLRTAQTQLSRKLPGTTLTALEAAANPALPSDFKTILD

Consider `N#Cc1c(O)nc(SCC(=O)Nc2cc(Cl)ccc2Cl)nc1-c1cccnc1`, for which the inhibition in [1] came to 5.58%.
In turn, `N#Cc1c(O)nc(SCC(=O)Nc2sc3c(c2C#N)CCC3)nc1-c1cccnc1` showed an inhibition in data set [1] of 58.6%. Besides, the IC50 in the data set on A549 came out at 90 µM; with NCI-H1299, 29 µM; in the data set on NCI-H460, 45 µM; in the data set on HepG2 it was 41 µM; in the data set on Huh-7 [2] it was 25 µM. Also, in data set [3], the Activity result is reported as “Non-Toxic”. In addition, the results for the “fold change (FC)” value with Huh-7 [4], with Huh-7 [5] and in the data set with Huh-7 [6] were 1.07, 1.08 and 0.8, respectively.
Regarding `COc1cccc2c1C(=O)c1c(O)c3c(c(O)c1C2=O)C[C@@](O)(C(=O)CO)C[C@@H]3O[C@H]1C[C@H](N)[C@H](O)[C@H](C)O1` [DOXORUBICIN], the Activity is given as 57.05% in the data set with Ehrlich [7]; 62.52% in the data set with Ehrlich [8]; 129.54% in the data set on Ehrlich [9]; 64.95% in the data set on Ehrlich [10]; 64.14% in the data set with Ehrlich [11]; 21.94% with Ehrlich [12]. Also, the Activity with Ehrlich [13] was 44.63%; with Ehrlich [14], 37.27%; in the data set with Ehrlich [15] it was 44.94%; in the data set with Ehrlich [16], 11.28 g/dL; with Ehrlich [17], 5.93 10^6/mm3; with Ehrlich [18], 51.14 fL. Also, the Activity with Ehrlich [19] was 16.43 pg; in the data set on Ehrlich [20] it was 4.46 10^3/mm3; with Ehrlich [21], 530.5 10^3/mm3; in the data set on Ehrlich [22], 25%; in the data set with Ehrlich [23], 50%; in the data set on Ehrlich [24], 50%. For the same compound, the Activity in the data set with Ehrlich [25] and in the data set with Ehrlich [26] was 0% throughout.
Regarding `COc1ccc(NC(=O)CSc2nc(O)c(C#N)c(-c3cccnc3)n2)cc1`, the inhibition in data set [1] was determined as 46.1%.
For the compound `N#Cc1ccc(NC(=O)CSc2nc(O)c(C#N)c(-c3cccnc3)n2)cc1`, the inhibition in [1] was found to be 21.7%.
`N#Cc1c(O)nc(SCC(=O)Nc2nc3ccccc3[nH]2)nc1-c1cccnc1` showed an inhibition in data set [1] of 32.6%.
The same measure, in the same setting: with `N#Cc1c(O)nc(SCC(=O)Nc2cccc3ccccc23)nc1-c1cccnc1` the figure was 34.5%; with `N#Cc1c(O)nc(SCC(=O)Nc2ccc3ccccc3c2)nc1-c1cccnc1`, 26%; with `C/C(=C\C(=O)Nc1ccc(N2CCOCC2)cc1C(=O)O)c1ccc2ccccc2c1`, 51.6%.
`N#Cc1c(O)nc(SCC(=O)Nc2cccc([N+](=O)[O-])c2)nc1-c1cccnc1` yielded an inhibition in data set [1] of 28.1%.
With `CC(=O)c1ccc(NC(=O)CSc2nc(O)c(C#N)c(-c3cccnc3)n2)cc1`, the inhibition in [1] was 30.2%.
Regarding `N#Cc1c(O)nc(SCC(=O)Nc2sc3c(c2C#N)CCCC3)nc1-c1cccnc1`, in data set [1], the inhibition amounted to 55.6%. Also, the IC50 in the data set with A549 amounted to 86 µM; in the data set on NCI-H1299 it was 23 µM; in the data set with NCI-H460, 41 µM; with HepG2 it was 18 µM; with Huh-7 [2], 33 µM. Moreover, in data set [3], the Activity result is “Non-Toxic”. The “fold change (FC)” value with Huh-7 [4] was determined as 1.13; in the data set on Huh-7 [5], 1.14; in the data set with Huh-7 [6] it was 0.77.
For `C/C(=C\C(=O)Nc1ccccc1C(=O)O)c1ccc2ccccc2c1`, the inhibition in data set [1] is 69.6%.
Turning to `N#Cc1c(O)nc(SCC(=O)Nc2ccc(Cl)c(C(F)(F)F)c2)nc1-c1cccnc1`, the inhibition in data set [1] came out at 8.91%.
Regarding `N#Cc1c(O)nc(SCC(=O)Nc2nc3ccccc3s2)nc1-c1cccnc1`, the inhibition in [1] amounted to 32.1%.
